Here are results for one compound from ChEMBL document CHEMBL3621159, “Discovery of an orally active subtype-selective HDAC inhibitor, chidamide, as an epigenetic modulator for cancer treatment” (Medchemcomm, 2014).

Series [1] in a line: Cytotoxicity against human hematopoietic malignant cells assessed as growth inhibition. It counts as functional.
The nature of series [2]: AUC in patient at 32.5 mg, po administered as single dose. The settings on record: human, in vivo. It counts as ADME, organism-based.
A short description of series [3]: Half life in patient at 25 to 50 mg, administered as single dose. It counts as ADME, organism-based. The following applies: human, in vivo.
A short description of series [4]: Cmax in patient at 32.5 mg, po administered as single dose. The settings on record: human, in vivo. Further details: dose 32.5 mg, route oral. It counts as ADME, organism-based.
Series [5] can be described thus: Cytotoxicity against human solid tumor cells assessed as growth inhibition. In kind it is functional.

Each structure is given as a SMILES string.

A word on the GI50: it is the concentration giving 50% growth inhibition. A word on the AUC: it is the area under the concentration-time curve, a measure of exposure. What is called half-life is how long it takes for the measured level to halve. One may read the Cmax as the maximum level reached in the sampled fluid or tissue.

With `Nc1cc(F)ccc1NC(=O)c1ccc(CNC(=O)/C=C/c2cccnc2)cc1` [TUCIDINOSTAT], the GI50 in series [1] was 1.86 µM; in series [5], 6.65 µM. Moreover, in series [2], the area under the curve (AUC) was found to be 2.24 µM·h. Besides, in series [3], the half-life was 24 h. The compound also returned a Cmax in series [4] of 312 nM.
